Laboratory results as given in PubChem BioAssay (NCI).
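Five concentrations, 48 hours, 96-well plates. Definition used: TGI = concentration required for complete inhibition of growth.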

Columns and labels:
Assay in all cases: DTP human tumour cell line panel, 48 h
[1] = test system: CAKI-1 renal
[2] = test system: TK-10 renal
[3] = test system: SN12C renal
[4] = test system: SK-MEL-28 melanoma
[5] = test system: SF-539 CNS
[6] = test system: HT29 colon
[7] = test system: MOLT-4 leukemia
[8] = test system: UACC-62 melanoma
[9] = test system: A498 renal
[10] = test system: PC-3 prostate

CN(C)C(=N)c1ccccc1
TGI [1]: > 100 µM
TGI [2]: > 100 µM
TGI [3]: > 100 µM
TGI [4]: > 100 µM
TGI [5]: > 100 µM
TGI [6]: > 100 µM

CC(C)C/C(CC(=O)CCC(=O)Nc1ccccc1[N+](=O)[O-])=N\NC(=O)c1cc2ccccc2cc1O
TGI [7]: > 100 µM
TGI [1]: > 100 µM
TGI [2]: > 100 µM
TGI [3]: > 100 µM
TGI [4]: > 100 µM
TGI [5]: 82.3 µM
TGI [8]: 80.5 µM
TGI [6]: > 100 µM

N#CC1C(C#N)C2(c3ccccc3)C(c3ccccc3)=NN(c3ccccc3)CC12 (configuration not stated)
TGI [7]: > 100 µM
TGI [1]: > 100 µM
TGI [2]: > 100 µM
TGI [3]: > 100 µM
TGI [4]: > 100 µM
TGI [5]: > 100 µM
TGI [8]: > 100 µM
TGI [9]: > 100 µM

CCCCC(=O)OCC(=O)[C@]1(O)Cc2c(O)c3c(c(O)c2[C@@H](OC2CC(NC(=O)C(F)(F)F)C(O)C(C)O2)C1)C(=O)c1c(OC)cccc1C3=O (some centres not stated)
TGI [1]: 2.63 µM
TGI [2]: 15.1 µM
TGI [3]: 3.91 µM
TGI [4]: 12.2 µM
TGI [5]: 2.98 µM
TGI [8]: 1.04 µM
TGI [9]: 0.948 µM
TGI [6]: > 100 µM
TGI [10]: 16.9 µM

CC(C)=CC(=O)C1c2cccc(O)c2C(=O)c2c(O)cc(C)cc21 (configuration not stated)
TGI [7]: 20.7 µM
TGI [1]: 21.5 µM
TGI [2]: 7.83 µM
TGI [3]: 25.4 µM
TGI [4]: 9.04 µM
TGI [5]: 3.04 µM
TGI [9]: 37.3 µM
TGI [6]: 20.5 µM

Cc1cc(C)nc(NS(=O)(=O)c2ccc(NC(=O)c3ccc(Cl)c4c(Nc5ccc(S(=O)(=O)Nc6nc(C)cc(C)n6)cc5)c5ccccc5nc34)cc2)n1
TGI [7]: > 100 µM
TGI [1]: > 100 µM
TGI [2]: 83.1 µM
TGI [3]: > 100 µM
TGI [4]: > 100 µM
TGI [9]: 57.4 µM
TGI [6]: > 100 µM

O=CC[C@H]1C(=O)C[C@@H]2CCC[C@@H]21
TGI [7]: > 100 µM
TGI [1]: > 100 µM
TGI [2]: > 100 µM
TGI [3]: > 100 µM
TGI [4]: > 100 µM
TGI [5]: > 100 µM
TGI [8]: > 100 µM
TGI [9]: > 100 µM
TGI [6]: > 100 µM

N#CCCN(CCC#N)c1ccc(/C=C2\N=C(c3cc([N+](=O)[O-])ccc3Cl)OC2=O)cc1
TGI [7]: 57.7 µM
TGI [1]: > 100 µM
TGI [3]: 37.8 µM
TGI [4]: > 100 µM
TGI [5]: > 100 µM
TGI [8]: > 100 µM
TGI [9]: > 100 µM
TGI [6]: > 100 µM

CN/N=C(/Cc1occc(=O)c1O)C(=O)Nc1ccccc1C
TGI [7]: > 100 µM
TGI [1]: > 100 µM
TGI [2]: > 100 µM
TGI [3]: > 100 µM
TGI [4]: > 100 µM
TGI [5]: > 100 µM
TGI [8]: > 100 µM
TGI [9]: > 100 µM
TGI [6]: > 100 µM

COc1ccc2c3c1C(=O)CCCC3CO2 (configuration not stated)
TGI [7]: > 100 µM
TGI [2]: > 100 µM
TGI [3]: > 100 µM
TGI [4]: > 100 µM
TGI [5]: > 100 µM
TGI [8]: > 100 µM
TGI [9]: > 100 µM
TGI [6]: > 100 µM

CN(C)CC[N+]1=Nc2cccc3cccc(c23)N1
TGI [7]: > 73.2 µM
TGI [1]: > 100 µM
TGI [2]: > 100 µM
TGI [3]: > 100 µM
TGI [4]: > 100 µM
TGI [5]: > 100 µM
TGI [8]: > 100 µM
TGI [9]: > 100 µM
TGI [6]: > 100 µM

CCN(CCO)CC1CCCC2CCCCC21 (configuration not stated)
TGI [1]: > 100 µM
TGI [2]: > 100 µM
TGI [3]: > 100 µM
TGI [4]: > 100 µM
TGI [5]: > 100 µM
TGI [8]: > 100 µM
TGI [9]: > 100 µM
TGI [6]: > 100 µM
TGI [10]: > 100 µM

O=C(O)c1ccccc1[Se][Se]c1ccccc1C(=O)O
TGI [7]: > 100 µM
TGI [1]: > 100 µM
TGI [2]: > 100 µM
TGI [3]: > 100 µM
TGI [4]: > 100 µM
TGI [5]: > 100 µM
TGI [8]: 82.8 µM
TGI [9]: > 100 µM
TGI [6]: > 100 µM
